Laboratory results reported in article PMC10856454, “Discovery of Novel Antitumor Small-Molecule Agent with Dual Action of CDK2/p-RB and MDM2/p53” (Molecules, 2024).

System: p-Rb, MDM2, p53 in HCT116 transplanted tumors
Test: Western blot of transplanted tumor tissues of nude mice
Format: in vivo, Balb/c nude mice
Conditions: Western blot of tumor tissue
Procedure: Total protein from HCT116, OVCAR3 cells and tissues was collected and homogenized in RIPA buffer. The total cellular protein extract was electrophoresed on 12% SDS-polyacrylamide gels and then transferred to a PVDF membrane (Thermo Fisher Scientific, Waltham, MA, USA). Primary antibodies were incubated overnight at 4 °C and secondary antibodies were incubated at room temperature for 1.5 h. Imaging was performed using Image Quant LAS4000 (GE, Boston, MA, USA).
HCT116 cells (1 × 10^6) were implanted into the back of adult male Balb/c nude mice by subcutaneous injection. […] The solvent or drug containing solution was administered daily to the vehicle and dosing groups by intraperitoneal injection (0.2 mL/20 g). Tumor growth was measured every three days during treatment. At the end of the treatment, the mice were killed, and the tumors were removed and weighed.

Q: Which “level of MDM2 in transplanted tumors” value does the source give for CC1(C)CCN1C(=O)O[C@@H]1CC[C@H](c2cc(NC(=O)Cc3ccc(N4CCCC4=O)cc3)n[nH]2)C1 [III-13] here?
A: Its value is “significantly down-regulated”.

Q: And the “level of p53 protein in transplanted tumors” value?
A: The value was “up-regulated”.

Q: And the “level of p-Rb in the transplanted tumors” value?
A: The value was “significantly reduced”.
